Legend:
pAkt(S473) = pAkt(S473) by flow cytometry in MOLM13 cells (Example 1); type: cell-based, human
Protocol: (§1) Staining of Cells for Flow Cytometry, General Protocol: • Live cells were centrifuged at 300 G for 5 minutes, washed once with PBS and centrifuged again. Cells were then fixed in 4% PFA in PBS for 10 minutes at 37° C., and resuspended in PBS. Unless processed immediately, samples were at this point stored in PBS at 4° C. (up to three weeks) or at −80° C. (for long-term storage). If intracellular epitopes were stained, cells were permebealized in 90% MeOH for 30 minutes on ice. Unless processed immediately, samples were also be stored in 90% MeOH at −20° C. for up to two months. • Further staining procedure (permebealized or non-permebealized cells): • Cells were washed 1× in PBS and blocked in blocking buffer; either PBS+0.5% BSA or PBS+1:1000 Octagam (5 mg/ml) for 15 minutes at room temperature. Thereafter, cells were incubated with primary AB at the indicated dilutions in incubation buffer (IB, PBS+0.5% BSA) for 1 hour at room temperature. Cells were then washed 3× with IB and incubated with secondary AB (conjugated to a fluorescent flurophore) at 1:1000 dilution in IB for 30 minutes at room temperature. Finally, cells were washed 3× in IB and resuspended in PBS. Cells were analyzed immediately, or stored for up to 24 hours at 4° C. before analysis. • Analysis of cells was done on a BD LSR Fortessa or a BD C6 Accuri flow cytometer, and further processing was done using FlowJo v.7.6. • All incubation steps (but not storage) were done on a spinning wheel or gentle shaker.
MOLM13 cells were treated with BGB324 at different doses, and phosphorylation of Akt at the S473 phosphorylation site was assessed using a pAkt (S473) XP antibody from Cell Signaling Technology (#4060, BGB #109). Due to previous experience using this AB for flow, the AB was not titrated, but used at the concentration recommended by the manufacturer for flow cytometry.
MOLM13 cells were cultured in starvation medium (RPMI, 0.1% FBS) over night, pre-treated with BGB324 at 3 μM for 20 minutes, and thereafter stimulated with 10% FBS for 20 minutes (+/−BGB324) to induce Akt phosphorylation. […]

Akt(S473) = assay: pAkt(S473) in blood of healthy volunteers treated ex vivo; type: cell-based, human; conditions: blood of two healthy volunteers, 1 μM, 30 minutes ex vivo; signal very low, disregarded as false
Protocol: (§2) Staining of Blood for Flow Cytometry, General Protocol: • Human blood from healthy donors was collected in the presence of sodium citrate and mixed with 20 volumes of pre-warmed BD phosflow lyse/fix buffer (diluted to 1× in destilled water), followed by incubation in 37° C. water bath for 10 minutes. Cells were spun at 500 g for 8 minutes and washed once with PBS. • Cells were permebilized by adding 70% MeOH followed by 30 min incubation on ice. Unless processed immediately, samples were at this point stored in MeOH at −20° C. for up to 4 weeks. • Staining of permeabilized cells: • Cells were spun at 600 g, washed twice and resuspended in IB. Cells were aliquoted into volums corresponding to 100 ul collected blood (before dilution), and stained as described above (section two in “Staining of cells for flow cytometry, general protocol”). • All washing and incubation steps were done on a spinning wheel or gentle shaker.
(§3) Blood samples from BGB324-treated individuals were not available, so BGB324-treatment was simulated by incubating fresh unfixed blood samples with 1 μM BGB324 for 30 minutes before fixation. Thereafter, samples were fixed, permebealized, and stained for flow with pAxl and pAkt antibodies to examine whether we could see a response to BGB324-treatment in these biomarkers (see FIG. 7). Phosphatase-treated cells were included as a negative staining control.

Axl(Y779) = assay: pAxl(Y779) in blood of healthy volunteers treated ex vivo; type: cell-based, human; conditions: blood of two healthy volunteers, 1 μM, 30 minutes ex vivo
Protocol: as §2
as §3, with “control. […]” for “control.”

totPLCγ1 = assay: Total PLCγ1 in AML cell panel, long-term treatment, flow cytometry; type: cell-based, human
Protocol: as §1
(§4) The diversity of AML cells and their responses was investigated using a panel of AML cell lines and assessing their responses after BGB324-treatment.
(§5) Long-term treatment was done in complete medium, without starvation. The responders were treated with 0.05, 0.1 or 0.3 μM BGB324, whereas the non-responders were treated with only a single dose of 2.5 μM BGB324. The cells were fixed after 24, 48 or 72 hours, and the samples were stored in 90% MeOH at −20° C. until all samples were harvested, and stained for flow at the same time.

totPHGDH = assay: Total PHGDH in AML cell panel, long-term treatment, flow cytometry; type: cell-based, human
Protocol: as §1, §4, §5

pPLCγ1 = pPLCγ1 in CD33-positive cells, MOLM13 systemic xenograft model, flow cytometry; type: in vivo, mice; conditions: 50 mg/kg for 4 days
Protocol: Material from an in vivo MOLM13 systemic model was also evaluated by flow cytometry. Expression of the previously evaluated biomarkers was examined in cells isolated from bone marrows and spleens of animals with systemic AML disease (MOLM13, inoculated for 7 days prior to treatment) treated with BGB324 at 50 mg/kg for 4 days. The spleens analysed were from the same study that was analysed by microarray, as mentioned above. The bone marrows were from an identical study that was done at a later time point to get more material for flow analyses.
Cells isolated from spleens and bone marrows were assessed for phosphorylation of Erk, PLCγ1 and Akt, and expression of PHGDH and SLFN11. The samples were also co-stained with CD33, and biomarker expression was only evaluated in CD33-positive cells.

**Q.** What does the source list for Nc1nc(Nc2ccc3c(c2)CC[C@@H](N2CCCC2)CC3)nn1-c1cc2c(nn1)-c1ccccc1CCC2 [BGB324, 1-(6,7-dihydro-5H-benzo[6,7]cyclohepta[1,2-c]pyridazin-3-yl)-N3-((7-(S)-pyrrolidin-1-yl)-6,7,8,9-tetrahydro-5H-benzo[7]annulene-2-yl)-1H-1,2,4-triazole-3,5-diamine]?
**A.** pAkt in shAxl-expressing cells (pAkt(S473); MOLM13 shAxl (Axl knockdown), 0.1-3 μM): inhibition of pAkt was also seen; Akt(S473) phosphorylation (pAkt(S473); MOLM13 starved over night, 3 μM, presence and absence of 10% FBS): potently inhibited; pAkt dose-response (pAkt(S473); MOLM13 wt, shLuc, shAxl, 0.1-3 μM, starved and non-starved): potent dose-dependent reduction of pAkt; pAkt (Akt(S473)): very slight reduction in pAkt; reduction of pAxl(Y779) (Axl(Y779); gated Axl-positive cells): ~20%; reduction of pAxl (Axl(Y779); whole live cell population): around 20%; PLCγ1 expression (totPLCγ1; Kasumi, 2.5 μM, 48 and 72 hours): significant increase of PLCγ1 expression; total protein expression of PLCγ1 (totPLCγ1; MOLM13, 0.3 μM, 24 hours): slight but significant reduction; total protein expression of PLCγ1 (totPLCγ1; Mv4-11, 0.3 μM, 24 and 72 hours): significant reduction; PLCγ1 expression (totPLCγ1; OCI-AML5, 2.5 μM, only 72 hours): significant increase of PLCγ1 expression; PHGDH expression (totPHGDH; Kasumi, 2.5 μM, significant at 24 hours): increase in PHGDH expression; total protein expression of PHGDH (totPHGDH; MOLM13, 24, 48 and 72 hours): no significant changes; total protein expression of PHGDH (totPHGDH; Mv4-11, 0.3 uM, 24 and 72 hours): significant reduction of PHGDH; PHGDH expression (totPHGDH; OCI-AML5, 2.5 μM, significant in all time points): increase in PHGDH expression; pPLCγ1 (pPLCγ1; bone marrows): significant reduction; pPLCγ1 (pPLCγ1; spleens): significant reduction

Source: patent US11035008B2, “Biomarkers for cancer” (BERGENBIO ASA, priority 2015, dated 2021)
